The structures appear in SMILES notation.

Holding throughout (type): biochemical
Assay [1] has as its target T1, HsPINK1 (Homo sapiens, UniProt Q9BXM7, M318G).
T1 construct: gene PINK1; HsPINK1 expressed transiently (pcDNA5d3) in HeLa PINK1-/- cells; heavy membrane fraction after oligomycin/antimycin treatment
Briefly: ubiquitin phosphorylation by heavy membranes, pSer65 Western blot. Particulars: 1 mM KTP, 15 uM ubiquitin, pH 7.4, 30 C.

The target of assay [2] is T2, HsPINK1 (Homo sapiens, UniProt Q9BXM7, M318A).
T2 construct: gene PINK1; HsPINK1 expressed transiently (pcDNA5d3) in HeLa PINK1-/- cells; heavy membrane fraction after oligomycin/antimycin treatment
T2 sequence (Q9BXM7 78-581 M318A): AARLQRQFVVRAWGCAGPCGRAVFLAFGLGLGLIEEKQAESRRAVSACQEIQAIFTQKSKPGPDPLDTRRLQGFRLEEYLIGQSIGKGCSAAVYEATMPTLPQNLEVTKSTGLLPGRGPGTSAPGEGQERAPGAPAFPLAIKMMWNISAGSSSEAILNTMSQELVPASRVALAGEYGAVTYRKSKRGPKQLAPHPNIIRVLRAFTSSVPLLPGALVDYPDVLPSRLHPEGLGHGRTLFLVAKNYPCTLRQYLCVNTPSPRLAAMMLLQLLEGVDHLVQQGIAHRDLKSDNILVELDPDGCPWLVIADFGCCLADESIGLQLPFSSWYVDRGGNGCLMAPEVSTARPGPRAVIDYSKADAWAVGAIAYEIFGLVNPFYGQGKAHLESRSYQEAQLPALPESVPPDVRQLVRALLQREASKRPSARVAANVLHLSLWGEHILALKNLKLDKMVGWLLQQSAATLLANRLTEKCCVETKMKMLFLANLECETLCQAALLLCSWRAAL
The description is as above. Particulars: 15 uM ubiquitin, pH 7.4, 30 C.

Assay [3] has as its target T3, PhPINK1 (residues 115 to 575) (Pediculus humanus, UniProt E0W1I1).
T3 construct: gene Pink1; residues 115-575, kinase domain with N- and C-terminal extensions; E. coli Rosetta2; N-terminal GST tag with 3C protease site in vector; autophosphorylated monomer for thermal shift, lambda-phosphatase-treated homo-dodecamer (six dimers) for cryo-EM
T3 sequence (E0W1I1 115-575): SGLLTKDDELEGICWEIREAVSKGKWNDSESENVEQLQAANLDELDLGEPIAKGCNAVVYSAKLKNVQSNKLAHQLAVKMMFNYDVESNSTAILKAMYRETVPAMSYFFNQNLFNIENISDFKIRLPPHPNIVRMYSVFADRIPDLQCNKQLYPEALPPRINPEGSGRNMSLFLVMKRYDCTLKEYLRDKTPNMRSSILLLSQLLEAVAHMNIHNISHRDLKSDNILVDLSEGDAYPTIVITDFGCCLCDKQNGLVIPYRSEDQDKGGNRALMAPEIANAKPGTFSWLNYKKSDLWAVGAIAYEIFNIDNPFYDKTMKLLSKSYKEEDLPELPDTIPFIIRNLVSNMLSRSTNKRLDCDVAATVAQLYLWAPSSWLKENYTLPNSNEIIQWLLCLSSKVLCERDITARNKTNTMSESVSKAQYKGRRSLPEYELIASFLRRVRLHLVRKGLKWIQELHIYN
Briefly: ubiquitin phosphorylation, Phos-tag SDS-PAGE. To be noted: 1 mM ATP, 15 uM ubiquitin, 10 mM MgCl2, pH 7.4, 22 C.

T1 sequence (Q9BXM7 78-581 M318G): as the sequence (Q9BXM7 78-581 M318A) above, with A241G counted along it

With `O=P(O)(O)OP(=O)(O)OP(=O)(O)OC[C@H]1O[C@@H](n2cnc3c(NCc4ccco4)ncnc32)[C@H](O)[C@@H]1O` [KTP], the “ubiquitin phosphorylation by heavy membranes, pSer65 Western blot” value at HsPINK1 [1] and on HsPINK1 [2] (1 mM KTP) was “both mutants were able to use KTP instead of ATP to generate phospho-ubiquitin” throughout.
In the case of `Nc1ncnc2c1ncn2[C@@H]1O[C@H](COP(=O)(O)OP(=O)(O)OP(=O)(O)O)[C@@H](O)[C@H]1O` [ATP], the “ubiquitin phosphorylation, Phos-tag SDS-PAGE” value in assay [3] is “Time course ubiquitin phosphorylation assay using WT PhPINK1 in the presence of ATP”. The “ubiquitin phosphorylation by heavy membranes, pSer65 Western blot” value at HsPINK1 [2] (1 mM ATP) is “HsPINK1 M318A, is active with both ATP and KTP”.

(Values after publication PMC10798554, “Interaction of PINK1 with nucleotides and kinetin” (Science Advances, 2024).)
